This passage reports Activity and Km results from ChEMBL document CHEMBL2074357, “Identification and functional assessment of the novel murine organic anion transporter Oat5 (Slc22a19) expressed in kidney” (Am J Physiol Renal Physiol, 2004).

What all share (type): functional, cell-based
Series [1] concerns the target T1, Solute carrier family 22 member 19 (Mus musculus) (UniProt Q8VCA0).
T1 sequence (whole entry): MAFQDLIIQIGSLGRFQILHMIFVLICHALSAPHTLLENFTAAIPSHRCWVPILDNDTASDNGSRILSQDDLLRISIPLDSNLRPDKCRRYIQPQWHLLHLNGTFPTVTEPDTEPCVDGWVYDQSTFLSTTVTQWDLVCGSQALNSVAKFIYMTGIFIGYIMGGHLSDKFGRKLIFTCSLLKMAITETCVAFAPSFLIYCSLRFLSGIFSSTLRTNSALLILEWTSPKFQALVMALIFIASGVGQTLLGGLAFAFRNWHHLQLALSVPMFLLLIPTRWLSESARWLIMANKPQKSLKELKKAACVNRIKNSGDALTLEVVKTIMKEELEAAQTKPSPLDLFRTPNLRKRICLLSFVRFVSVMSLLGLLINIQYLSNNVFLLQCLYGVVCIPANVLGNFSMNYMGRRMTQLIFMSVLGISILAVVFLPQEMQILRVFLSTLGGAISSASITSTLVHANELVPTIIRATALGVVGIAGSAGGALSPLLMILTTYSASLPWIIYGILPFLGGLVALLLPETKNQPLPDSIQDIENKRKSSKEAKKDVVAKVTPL
Kind of series: TP_TRANSPORTER: inhibition of (Ochratoxin A: 0.5uM) of 2,4-dichlorophenoxyacetic acid at a concentration of 100uM in Oat5-expressing oocytes. The arrangement: scale not given: the % may be the effect or the level left. Conditions: Xenopus laevis, Oocyte.

The target of series [2] is T1, Solute carrier family 22 member 19 (Mus musculus). The experiment in a line: TP_TRANSPORTER: inhibition of (Ochratoxin A: 0.5uM) of Estrone-3-sulfate at a concentration of 100uM in Oat5-expressing oocytes. On the set-up: scale not given: the % may be the effect or the level left. Conditions: Xenopus laevis, Oocyte.
The target is the same in series [3]. The experiment in a line: TP_TRANSPORTER: inhibition of (Ochratoxin A: 0.5uM) of Probenecid at a concentration of 1000uM in Oat5-expressing Xenopus oocytes. On the set-up: scale not given: the % may be the effect or the level left. Particulars: Xenopus laevis, Oocyte.
Substrate in series [4]: C[C@@H]1Cc2c(Cl)cc(C(=O)N[C@@H](Cc3ccccc3)C(=O)O)c(O)c2C(=O)O1
Kind of series: TP_TRANSPORTER: uptake in Oat5-expressing oocytes. Conditions: Xenopus laevis; Oocyte.

Take `O=C(O)COc1ccc(Cl)cc1Cl`: the Activity in series [1] is 25%.

As to `C[C@]12CC[C@@H]3c4ccc(OS(=O)(=O)O)cc4CC[C@H]3[C@@H]1CCC2=O`, the Activity in series [2] was 5%.

In the case of `CCCN(CCC)S(=O)(=O)c1ccc(C(=O)O)cc1`, the Activity in series [3] is 25%.

B1: Solute carrier family 22 member 19 (Mus musculus), Q8VCA0 (protein)
chain: T1 sequence (whole entry)
For the molecule B1, the Michaelis constant (Km) (commonly the substrate concentration at which the rate is half of its maximum) in series [4] came out at 2 µM.
